Measurements as given in patent US20160297833A1, “THIENOPYRIMIDINES AS MKNK1 AND MKNK2 INHIBITORS” (BAYER PHARMA AKTIENGESELLSCHAFT, priority 2013, published 2016).
Like-named read-outs stand apart in the source and are kept apart here.

Biological target: T1, human full-length MKNK1 (Homo sapiens, UniProt Q9BUB5, T385D)
T1 construct: GST (N); purchased Carna Biosciences 02-145; host or cells: insect cells (baculovirus expression system)
Test: MKNK1 kinase high ATP assay (TR-FRET)
Type: biochemical
Details: for IC50: read-out: MKNK1 IC50
Outline: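 Full-length human MKNK1 (T385D) preincubated 15 min at 22 °C with compound in HEPES pH 7.5/MgCl2/DTT buffer; reaction with 2 mM ATP (final) and 0.06 μM biotinylated peptide (final), 30 min at 22 °C.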

[1] = Table 1, MKNK1 kinase high ATP assay, 2 mM ATP

T1 sequence (Q9BUB5 1-424 isoform Q9BUB5-2 T344D): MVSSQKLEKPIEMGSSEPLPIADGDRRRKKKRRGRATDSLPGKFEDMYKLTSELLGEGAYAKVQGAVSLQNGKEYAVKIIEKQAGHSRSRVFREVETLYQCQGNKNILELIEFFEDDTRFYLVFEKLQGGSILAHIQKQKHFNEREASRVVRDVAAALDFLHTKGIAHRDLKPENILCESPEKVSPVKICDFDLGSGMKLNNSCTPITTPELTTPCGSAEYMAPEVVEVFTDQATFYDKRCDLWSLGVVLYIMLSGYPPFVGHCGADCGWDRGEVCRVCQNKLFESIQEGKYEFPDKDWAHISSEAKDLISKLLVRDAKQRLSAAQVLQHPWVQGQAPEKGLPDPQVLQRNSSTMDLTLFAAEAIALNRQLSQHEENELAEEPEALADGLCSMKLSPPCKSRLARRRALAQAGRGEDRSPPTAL

In the case of `CN(C)C(=O)[C@H]1CCc2c(sc3ncnc(Nc4cc5cn[nH]c5cc4OCCCN4CC(F)C4)c23)C1` [Example 276, (7S)-4-({6-[3-(3-Fluoroazetidin-1-yl)propoxy]-1H-indazol-5-yl}amino)-N,N-dimethyl-5,6,7,8-tetrahydro[1]benzothieno[2,3-d]pyrimidine-7-carboxamide], the IC50 [1] is reported as 10.2 nM.
`O=C([C@H]1CCc2c(sc3ncnc(Nc4ccc5[nH]ncc5c4)c23)C1)N1CCC1` [Example 3, Azetidin-1-yl[(7S)-4-(1H-indazol-5-ylamino)-5,6,7,8-tetrahydro[1]benzothieno[2,3-d]pyrimidin-7-yl]methanone] gave an IC50 [1] of 11 nM.
`COc1cc2[nH]ncc2cc1Nc1ncnc2sc3c(c12)CC[C@H](C(=O)N1C[C@H]2C[C@@H]1CO2)C3` [Example 34, {(7S)-4-[(6-Methoxy-1H-indazol-5-yl)amino]-5,6,7,8-tetrahydro[1]benzothieno[2,3-d]pyrimidin-7-yl}[(1R,4R)-2-oxa-5-azabicyclo[2.2.1]hept-5-yl]methanone] showed an IC50 [1] of 0.5 nM.
Work on `CCCCN(C)C(=O)[C@H]1CCc2c(sc3ncnc(Nc4cc5cn[nH]c5cc4N4CCC(N(C)C)CC4)c23)C1` [Example 105, (7S)—N-Butyl-4-({6-[4-(dimethylamino)piperidin-1-yl]-1H-indazol-5-yl}amino)-N-methyl-5,6,7,8-tetrahydro[1]benzothieno[2,3-d]pyrimidine-7-carboxamide] yielded an IC50 [1] of 14.1 nM.
With “(7S)-4-(1H-Indazol-5-ylamino)-N-methyl-N-(3,3,3-trifluoropropyl)-5,6,7,8-tetrahydro[1]benzothieno[2,3-d]pyrimidine-7-carboxamide [Example 6]” the IC50 (Table 3, example numbers of WO2013/174744(A1), not of this patent, pure enantiomer from chiral HPLC, absolute configuration at amide 'R or S') was 15.6 nM, the IC50 (Table 3, example numbers of WO2013/174744(A1), not of this patent, pure enantiomer from chiral HPLC, absolute configuration at amide 'S or R') was 7.5 nM and the “Activity Ratio MKNK1” value (Table 3, example numbers of WO2013/174744(A1), ratio of the IC50 values of the two enantiomers) was 2.1.
`CSc1cc2[nH]ncc2cc1Nc1ncnc2sc3c(c12)CC[C@H](C(=O)N(C)C(C)C)C3` [Example 251, (7S)—N-Methyl-4-{[6-(methylsulfanyl)-1H-indazol-5-yl]amino}-N-(propan-2-yl)-5,6,7,8-tetrahydro[1]benzothieno[2,3-d]pyrimidine-7-carboxamide] showed an IC50 [1] of 1.5 nM.
`CCOc1cc2[nH]ncc2cc1Nc1ncnc2sc3c(c12)CC[C@H](C(=O)N(C)CC(C)(C)O)C3` [Example 74, (7S)-4-[(6-Ethoxy-1H-indazol-5-yl)amino]-N-(2-hydroxy-2-methylpropyl)-N-methyl-5,6,7,8-tetrahydro[1]benzothieno[2,3-d]pyrimidine-7-carboxamide] was tested, and the IC50 [1] was 0.2 nM.
Compound `C[C@H]1COCCN1C(=O)[C@H]1CCc2c(sc3ncnc(Nc4cc5cn[nH]c5cc4N4CCC(N(C)C)CC4)c23)C1` [Example 135, [(7S)-4-({6-[4-(Dimethylamino)piperidin-1-yl]-1H-indazol-5-yl}amino)-5,6,7,8-tetrahydro[1]benzothieno[2,3-d]pyrimidin-7-yl][(3S)-3-methylmorpholin-4-yl]methanone] has an IC50 [1] of 14.1 nM.
Work on `COCCN(CCO)C(=O)[C@@H]1CCc2c(sc3ncnc(Nc4cc5cn[nH]c5cc4OC)c23)C1` [Example 43, (7R)—N-(2-Hydroxyethyl)-N-(2-methoxyethyl)-4-[(6-methoxy-1H-indazol-5-yl)amino]-5,6,7,8-tetrahydro[1]benzothieno[2,3-d]pyrimidine-7-carboxamide] yielded an IC50 [1] of 8.9 nM.
With `CCOc1cc2[nH]ncc2cc1Nc1ncnc2sc3c(c12)CC[C@H](C(=O)N(C)CC(C)(C)C)C3` [Example 173, (7S)—N-(2,2-Dimethylpropyl)-4-[(6-ethoxy-1H-indazol-5-yl)amino]-N-methyl-5,6,7,8-tetrahydro[1]benzothieno[2,3-d]pyrimidine-7-carboxamide] the IC50 [1] was 0.4 nM.
`C[C@H]1COCCN1C(=O)[C@H]1CCc2c(sc3ncnc(Nc4cc5cn[nH]c5cc4Br)c23)C1` [Example 235, {(7S)-4-[(6-Bromo-1H-indazol-5-yl)amino]-5,6,7,8-tetrahydro[1]benzothieno[2,3-d]pyrimidin-7-yl}[(3S)-3-methylmorpholin-4-yl]methanone] was tested, and the IC50 [1] was 3.4 nM.
For `COc1cc2[nH]ncc2cc1Nc1ncnc2sc3c(c12)CC[C@H](C(=O)N(C)CC(C)(C)OC)C3` [Example 204, (7S)-4-[(6-Methoxy-1H-indazol-5-yl)amino]-N-(2-methoxy-2-methylpropyl)-N-methyl-5,6,7,8-tetrahydro[1]benzothieno[2,3-d]pyrimidine-7-carboxamide], the IC50 [1] was 0.9 nM.
